Laboratory results published in the supplement of paper PMC10307832.

Tests used:
Assay in all cases: relative viability (nuclei count vs DMSO), 5 days (fraction); higher = more cells survive
[1] = compound: COc1cc([C@@H]2c3cc4c(cc3[C@@H](O[C@@H]3O[C@@H]5CO[C@@H](C)O[C@H]5[C@H](O)[C@H]3O)[C@H]3COC(=O)[C@H]23)OCO4)cc(OC)c1O [Etoposide] + Nc1ncn([C@H]2C[C@H](O)[C@@H](CO)O2)c(=O)n1 [Decitabine] (partner 2 µM)
In short: (§1)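 Each reported value is a median over duplicate plates. It expresses relative viability: treated-well nuclei count divided by vehicle-well nuclei count. Lung cancer cell lines in 1536-well plates were dosed by pin tool a day after seeding, alone with one drug or with a fixed anchor-drug dose plus five library-drug doses (not always all listed) in √10 steps, and nuclei were counted after 5 days.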

[2] = compound: CC1=C(N=C(N=C1N)[C@H](CC(=O)N)NC[C@@H](C(=O)N)N)C(=O)N[C@@H]([C@H](C2=CN=CN2)OC3C(C(C(C(O3)CO)O)O)OC4C(C(C(C(O4)CO)O)OC(=O)N)O)C(=O)N[C@H](C)[C@H]([C@H](C)C(=O)N[C@@H]([C@@H](C)O)C(=O)NCCC5=NC(=CS5)C6=NC(=CS6)C(=O)NCCC[S+](C)C)O [Bleomycin] + O=C(c1cc(Cc2n[nH]c(=O)c3ccccc23)ccc1F)N1CCN(C(=O)C2CC2)CC1 [Olaparib] (partner 8 µM); details: main component drawn
In short: as §1

[3] = compound: CC1=C(N=C(N=C1N)[C@H](CC(=O)N)NC[C@@H](C(=O)N)N)C(=O)N[C@@H]([C@H](C2=CN=CN2)OC3C(C(C(C(O3)CO)O)O)OC4C(C(C(C(O4)CO)O)OC(=O)N)O)C(=O)N[C@H](C)[C@H]([C@H](C)C(=O)N[C@@H]([C@@H](C)O)C(=O)NCCC5=NC(=CS5)C6=NC(=CS6)C(=O)NCCC[S+](C)C)O [Bleomycin] + CS(=O)(=O)CCNCc1ccc(-c2ccc3ncnc(Nc4ccc(OCc5cccc(F)c5)c(Cl)c4)c3c2)o1 [Lapatinib] (partner 2 µM); details: main component drawn
In short: as §1

[4] = compound: COc1cc([C@@H]2c3cc4c(cc3[C@@H](O[C@@H]3O[C@@H]5CO[C@@H](C)O[C@H]5[C@H](O)[C@H]3O)[C@H]3COC(=O)[C@H]23)OCO4)cc(OC)c1O [Etoposide] + Cc1cc(Nc2cc(N3CCN(C)CC3)nc(Sc3ccc(NC(=O)C4CC4)cc3)n2)n[nH]1 [Tozasertib] (partner 0.1 µM)
In short: as §1

Cell Line | relative viability ([1]; first compound 0.01 µM) | relative viability ([1]; first compound 0.03162 µM) | relative viability ([1]; first compound 0.1 µM) | relative viability ([1]; first compound 0.3162 µM) | relative viability ([1]; first compound 1 µM) | relative viability ([2]; first compound 0.01 µM) | relative viability ([2]; first compound 0.03162 µM) | relative viability ([2]; first compound 0.1 µM) | relative viability ([2]; first compound 0.3162 µM) | relative viability ([2]; first compound 1 µM) | relative viability ([3]; first compound 0.01 µM) | relative viability ([3]; first compound 0.03162 µM) | relative viability ([3]; first compound 0.1 µM) | relative viability ([3]; first compound 0.3162 µM) | relative viability ([3]; first compound 1 µM) | relative viability ([4]; first compound 0.01 µM) | relative viability ([4]; first compound 0.03162 µM) | relative viability ([4]; first compound 0.1 µM) | relative viability ([4]; first compound 0.3162 µM) | relative viability ([4]; first compound 1 µM)
LCLC-97TM1 | 0.253 | 0.222 | 0.302 | 0.129 | 0.11 | 0.211 | 0.258 | 0.148 | 0.0871 | 0.0615 | 0.264 | 0.288 | 0.151 | 0.168 | 0.093 | 0.201 | 0.2 | 0.208 | 0.19 | 0.144
LK-2 | 0.289 | 0.302 | 0.159 | 0.177 | 0.171 | 0.369 | 0.451 | 0.279 | 0.163 | 0.165 | 0.66 | 0.488 | 0.542 | 0.261 | 0.248 | 0.207 | 0.175 | 0.18 | 0.21 | 0.205
LOU-NH91 | 0.783 | 0.876 | 0.778 | 0.766 | 0.54 | 0.604 | 0.521 | 0.432 | 0.342 | 0.28 | 0.679 | 0.609 | 0.51 | 0.361 | 0.298 | 0.713 | 0.673 | 0.566 | 0.554 | 0.341
LU99A | 0.893 | 0.928 | 0.504 | 0.473 | 0.246 | 0.209 | 0.24 | 0.202 | 0.141 | 0.118 | 0.58 | 0.742 | 0.271 | 0.138 | 0.108 | 0.283 | 0.277 | 0.262 | 0.247 | 0.241
LXF-289 | 0.378 | 0.383 | 0.306 | 0.307 | 0.194 | 0.887 | 0.831 | 0.864 | 0.168 | 0.127 | 0.807 | 0.884 | 0.635 | 0.206 | 0.179 | 0.209 | 0.166 | 0.196 | 0.111 | 0.0978
NCI-H23 | 0.333 | 0.317 | 0.291 | 0.235 | 0.242 | 0.205 | 0.153 | 0.171 | 0.107 | 0.107 | 0.419 | 0.314 | 0.268 | 0.197 | 0.165 | 0.344 | 0.333 | 0.29 | 0.201 | 0.163
NCI-H322M | 0.71 | 0.696 | 0.584 | 0.623 | 0.563 | 0.612 | 0.823 | 0.675 | 0.545 | 0.447 | 0.467 | 0.551 | 0.543 | 0.383 | 0.348 | 0.484 | 0.47 | 0.423 | 0.441 | 0.425
NCI-H358 | 0.229 | 0.212 | 0.155 | 0.136 | 0.103 | 0.475 | 0.713 | 0.657 | 0.294 | 0.227 | 0.381 | 0.466 | 0.354 | 0.256 | 0.254 | 0.112 | 0.107 | 0.107 | 0.0887 | 0.0917
NCI-H460 | 0.432 | 0.454 | 0.319 | 0.105 | 0.0405 | 0.212 | 0.159 | 0.12 | 0.0368 | 0.073 | 0.296 | 0.29 | 0.0624 | 0.0161 | 0.0213 | 0.396 | 0.369 | 0.338 | 0.0692 | 0.0251
NCI-H520 | 0.532 | 0.493 | 0.519 | 0.424 | 0.376 | 0.339 | 0.322 | 0.325 | 0.251 | 0.268 | 0.715 | 0.79 | 0.833 | 0.54 | 0.43 | 0.427 | 0.408 |  | 0.462 | 0.396
NCI-H596 | 0.826 | 1.05 | 1.09 | 1.01 | 0.857 | 0.599 | 0.515 | 0.515 | 0.371 | 0.438 | 0.852 | 0.742 | 0.547 | 0.416 | 0.452 | 0.774 | 1.05 | 0.843 | 0.543 | 0.683
NCI-H647 | 0.363 | 0.369 | 0.31 | 0.193 | 0.175 | 0.161 | 0.148 | 0.195 | 0.0429 | 0.0447 | 0.353 | 0.336 | 0.191 | 0.0899 | 0.0986 | 0.224 | 0.0009 | 0.271 | 0.205 | 0.112
NCI-H650 | 0.318 | 0.339 | 0.278 | 0.205 | 0.174 | 0.333 | 0.463 | 0.336 | 0.264 | 0.175 | 0.537 | 0.748 | 0.686 | 0.318 | 0.21 | 0.693 | 0.717 | 0.498 | 0.258 | 0.166
NCI-H661 | 0.558 | 0.671 | 0.477 | 0.46 | 0.343 | 0.654 | 0.59 | 0.513 | 0.322 | 0.363 | 0.501 | 0.374 | 0.349 | 0.204 | 0.219 | 0.342 | 0.374 | 0.332 | 0.323 | 0.353
